# Patent publication US6683230B1, “Hybrid seed production” (Syngenta Limited, priority 1998, dated 2004)
# Read-outs that look alike come from different tables or passages of the source.
# Legend:
# lac repressor = details: tobacco protoplasts and stable transformants; cited from earlier work
# [1] = system: safener induced GST-27 promoter; assay: Reversal of sterility in GST-27-barstar maize WU25 by safener; assay type: in vivo
# From the text: The corn transformation vector Zm/RMS14 (described above) carries a barstar gene fused to the safener induced GST-27 promoter. WU25 was shown by PCR to contain this gene fusion. […] There was no effect of the safener on the size or fertility of tassels on non-transgenic fertile plants. […] The resumption of microspore development appears to be linked to the barstar inhibition of barnase thus overcoming the ablation of tapetal cells. […] In contrast, the anthers from sterile plants were collapsed.
# The same promoter fragment was fused to barnase to generate the corn transformation vector ZM/RMS14 (FIG. 30). This fusion also contained an out of frame barstar gene with a functional bacterial promoter to provide protection against barnase during the cloning steps. Transgenic maize plants were obtained and several progressed for further analysis. One plant WU25 in particular was studied in some detail by analysing progeny derived from crosses with pollen from a fully fertile plant. All progeny inheriting the transgene as assessed by PCR and leaf paint to detect the pat gene were completely sterile, whereas progeny lacking the transgene were fully fertile. […] In all other respects sterile plants were indistinguishable from their fertile non-transgenic siblings.
# AlcA promoter [2] = system: AlcA promoter
# Description: (§1) Flower material was ground in 2-300 μl of extraction buffer (100 mM sodium phosphate buffer pH 7, 10 mM EDTA, 0.1% Triton X-100, 1% Sarcosyl, 10 mM b-mercaptoethanol). Samples were spun in a microcentrifuge for 15 min and 5 μl of the supernatant was used for Bradford protein assays with BSA as standard. 20 μl was diluted 1 in 5 with extraction buffer and 400 μl of assay buffer (same for extraction buffer except contains 1 mM 4-MUG and 20% methanol). 100 μl was taken (T0 sample) and added to 900 μl of stop buffer (0.2M sodium carbonate) and the rest was incubated at 37° C. for two hours before taking a further 100 μl (T2 samples) to be added to 900 μl stop buffer.
# (§2) Florescence of samples was measured in a spectrophotometer and GUS was represented as nM 4M U per mg protein per hour.
# (§3) For the GUS staining, the protocol of Blume and Grierson (1997) was used.
# AlcA promoter [3] = details: ethanol vapour, 2-3 days
# Description: Scutellum tissue is bombarded with pUIRN.AGS and the tissue exposed to ethanol vapour. […] Transgenic Alc-GUS plants obtained are grown to maturity and seed harvested, inducible GUS expression is determined on the progeny plants in the same way as described above for rice.
# as §3
# AlcA promoter [4] = details: 0.1% (v/v) ethanol in medium, 3 weeks
# Description: as §1, §2
# AlcA promoter [5] = details: after induction with ethanol
# AlcA promoter [6] = details: ethanol vapour, two days after induction
# From the text: Alc-GUS tomoato flowers were induced using ethanol vapour as described above for tobacco flowers. Two days after induction, anthers and pollen were stained to detect GUS expression.
# as §3
# AlcA promoter [7] = system: AlcA promoter; remark: listed apart in the source
# AlcA promoter [8] = system: AlcA promoter; remark: listed apart in the source
# From the text: 1) Oilseed rape (OSR) AlcA-GUS plants were root drenched with 250m1 of either water, 1% or 2% ethanol both on day 0 and day 1. Flower samples from these plants were then taken two days after the first induction.
# The first two bars in each section represent uninduced anther and uninduced stigma/style GUS levels respectively. Each bar represents three replicates with each replicate containing anthers from three different flowers or stigma/styles from eight different flowers or ovaries from six different flowers.
# 2) Oilseed rape Aic-GUS flowers were subjected to GUS staining following induction with ethanol.
# as §1, §2, §3
smiles,measurement,setting,value
CC(C)S[C@@H]1O[C@H](CO)[C@H](O)[C@H](O)[C@H]1O [IPTG],repression of GUS expression by lac repressor,lac repressor,repression can be relieved
CC1CN(C(=O)C(Cl)Cl)C(C)(C)O1 (centres unmarked) [R-29148],microsporogenesis,[1]; extended treatment with safener,anthers filled with immature post-mitotic pollen
same,microspore development and tassel size,"[1]; foliar application, field grown plants",A similar effect was seen
same,size or fertility of tassels,[1]; non-transgenic fertile plants,no effect
same,microspore development in anthers,"[1]; root drench, glass house",microspore development was observed
same,reversal of sterility,"[1]; root drench, glass house grown plants",Reversal of sterility was demonstrated
same,tassel size,[1]; treated vs untreated transgenic plants,increased tassel size relative to untreated plants
CCO [ethanol],GUS in anthers,"AlcA promoter [2]; cut flower stems in 1%, 2% or 5% ethanol, two days",induced by ethanol in the anthers at levels above those seen in the water treated flowers
same,GUS staining of pistils,"AlcA promoter [2]; root drench 250 ml 5% ethanol, two days",induction of GUS in the pistils
same,GUS in anthers,"AlcA promoter [2]; vapour from 50 ml of 5% ethanol in sealed bag, 3 days",higher levels of GUS
same,GUS staining of bombarded scutellum tissue,AlcA promoter [3],numerous blue spots are seen
same,GUS levels in callus,AlcA promoter [4],levels can be increased with the addition of ethanol
same,reporter gene (CAT) levels in floral tissues,AlcA promoter [5],increase in reporter gene levels in floral tissues
same,GUS staining of anthers and pollen,AlcA promoter [6],blue staining was observed in both tissues
same,concentration at which induction of GUS expression was observed,AlcA promoter [7]; AlcA promoter,7 ng/100 ml air
same,toxicity to operators and environment,AlcA promoter [7]; in vivo,non-toxic to operators and to the environment
same,concentration at which the inducer is effective,"AlcA promoter [7]; root drench, aqueous spray or gas",1%
same,"GUS levels, all tissues examined",AlcA promoter [8]; 2% ethanol root drench,increase in GUS from both uninduced levels and from the water-treated control plant
same,GUS staining of pistils,AlcA promoter [8]; 5% ethanol treated plant vs water-treated,induction of GUS in the female tissues
same,GUS staining of whole inflorescence,"AlcA promoter [8]; cut flower stem in 5% ethanol, two days","Blue staining is apparent in the filaments, sepals, petals and the stigma/style regions of the flower"
same,GUS staining of pistil sections,"AlcA promoter [8]; root drench 2% ethanol, two days",induction of GUS throughout the pistil region
same,GUS levels in floral tissues,"AlcA promoter [8]; root drench 250 ml 1% or 2% ethanol day 0 and day 1, sampled two days after first induction",increase in GUS levels in floral tissues
same,GUS staining of flower,AlcA promoter [8]; two days after root drench with 250 ml of 5% ethanol,reporter gene induction in the stigma/style region as well as the filaments
